In paper PMC6700223 (Frontiers in Microbiology, 2019):

Molecular target: HR1-1 peptide (HR1 domain of LASV GP2) (Lassa virus, UniProt P08669)
Test: biochemical
Type: binding

Chain of HR1-1 peptide (HR1 domain of LASV GP2) (P08669 296-345 limits assumed): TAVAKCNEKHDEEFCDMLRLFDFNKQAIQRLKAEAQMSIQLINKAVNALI

For `CC[C@H](C)[C@H](NC(=O)[C@H](CC(=O)O)NC(=O)[C@H](CC(=O)O)NC(=O)[C@H](CO)NC(=O)[C@H](Cc1ccccc1)NC(=O)[C@H](Cc1c[nH]cn1)NC(=O)[C@@H](N)[C@@H](C)O)C(=O)N[C@@H](CCC(=O)O)C(=O)N[C@@H](CCC(N)=O)C(=O)N[C@@H](CCC(N)=O)C(=O)N[C@@H](C)C(=O)N[C@@H](CC(=O)O)C(=O)N[C@@H](CC(N)=O)C(=O)N[C@@H](CCSC)C(=O)N[C@H](C(=O)N[C@H](C(=O)N[C@@H](CCC(=O)O)C(=O)N[C@@H](CCSC)C(=O)N[C@@H](CC(C)C)C(=O)N[C@@H](CCC(N)=O)C(=O)N[C@@H](CCCCN)C(=O)N[C@@H](CCC(=O)O)C(=O)N[C@@H](Cc1ccc(O)cc1)C(=O)N[C@@H](CCSC)C(=O)N[C@@H](CCC(=O)O)C(=O)O)[C@@H](C)O)[C@@H](C)CC` [HR2-3], the kon was 1420 M⁻¹ s⁻¹ and the koff (read-out: Kdis) was 0.0823 s⁻¹.

In the case of `CC[C@H](C)[C@H](NC(=O)[C@H](CC(=O)O)NC(=O)[C@H](CC(=O)O)NC(=O)[C@H](CO)NC(=O)[C@H](Cc1ccccc1)NC(=O)[C@H](Cc1c[nH]cn1)NC(=O)[C@@H](NC(=O)[C@H](CCC(=O)O)NC(=O)[C@H](CC(N)=O)NC(=O)[C@H](CC(C)C)NC(=O)[C@H](Cc1ccc(O)cc1)NC(=O)[C@@H](N)CO)[C@@H](C)O)C(=O)N[C@@H](CCC(=O)O)C(=O)N[C@@H](CCC(N)=O)C(=O)N[C@@H](CCC(N)=O)C(=O)N[C@@H](C)C(=O)N[C@@H](CC(=O)O)C(=O)N[C@@H](CC(N)=O)C(=O)N[C@@H](CCSC)C(=O)N[C@H](C(=O)N[C@H](C(=O)N[C@@H](CCC(=O)O)C(=O)N[C@@H](CCSC)C(=O)N[C@@H](CC(C)C)C(=O)N[C@@H](CCC(N)=O)C(=O)N[C@@H](CCCCN)C(=O)N[C@@H](CCC(=O)O)C(=O)N[C@@H](Cc1ccc(O)cc1)C(=O)N[C@@H](CCSC)C(=O)N[C@@H](CCC(=O)O)C(=O)N[C@@H](CCCNC(=N)N)C(=O)N[C@@H](CCC(N)=O)C(=O)NCC(=O)N[C@@H](CCCCN)C(=O)N[C@H](C(=O)N1CCC[C@H]1C(=O)N[C@@H](CC(C)C)C(=O)O)[C@@H](C)O)[C@@H](C)O)[C@@H](C)CC` [HR2-2], the “Binding to HR1-1 peptide (in words)” value was “strongly bind”, the Response (concentration 3.75 μM) was 0.0341 nm and the Response (concentration 7.5 μM) was 0.0743 nm. It also gave a Response (concentration 15 μM) of 0.0958 nm and a Response (concentration 30 μM) of 0.119 nm.
